Assay results from patent US20240158446A1, “CYCLIC COMPOUND HAVING SELECTIVE INHIBITORY ACTION ON KRAS OVER HRAS AND NRAS” (CHUGAI SEIYAKU KABUSHIKI KAISHA, priority 2021, published 2024).
Read-outs that look alike come from different tables or passages of the source. Where a SMILES comes first, the peptide text is derived from it. Bridges are numbered along the chain shown (N, C = ends). [ ]: non-standard residue; d: D form. The star is where a group is joined. hPhe(3,5-F2-4-CF3) = N[C@@H](CCc1cc(F)c(C(F)(F)F)c(F)c1)C(=O)O; hPhe(3-Cl-4-CF3) = N[C@@H](CCc1ccc(C(F)(F)F)c(Cl)c1)C(=O)O; NPrPhe(4-CF3) = CCCN[C@@H](Cc1ccc(C(F)(F)F)cc1)C(=O)O; NPrPhe(4-Me) = CCCN[C@@H](Cc1ccc(C)cc1)C(=O)O; NMeGly(cPent) = CN[C@H](C(=O)O)C1CCCC1; Pro(4,4-F2) = O=C(O)[C@@H]1CC(F)(F)CN1; Hyp = O=C(O)[C@@H]1C[C@@H](O)CN1; NMeD = CN[C@@H](CC(=O)O)C(=O)O; NMeL = CN[C@@H](CC(C)C)C(=O)O; αMeS = C[C@](N)(CO)C(=O)O; Morpholide = C1CN(*)CCO1; NMeA = CN[C@@H](C)C(=O)O; Ac5c = NC1(C(=O)O)CCCC1; Aze = O=C(O)[C@@H]1CCN1; Ac4c = NC1(C(=O)O)CCC1; NEtG = CCNCC(=O)O; Sar = CNCC(=O)O

Columns and labels:
[1] = target: GDP-bound HRAS wild-type protein (Homo sapiens, UniProt P01112); assay: Binding to HRAS by surface plasmon resonance (SPR), Single Cycle Kinetics; settings: for HRAS/KRAS (ratio of KD value for HRAS to KD value for KRAS) / HRAS/KRAS (ratio of KD value with respect to HRAS to KD value with respect to KRAS): SPR, GDP-bound HRAS wild-type protein vs GDP-bound KRAS wild-type protein; for HRAS/KRAS (ratio of KD value with respect to GDP-bound HRAS wild-type protein to KD value with respect to KRAS): SPR KD ratio HRAS/KRAS, class symbols
Chain of GDP-bound HRAS wild-type protein (P01112 whole entry): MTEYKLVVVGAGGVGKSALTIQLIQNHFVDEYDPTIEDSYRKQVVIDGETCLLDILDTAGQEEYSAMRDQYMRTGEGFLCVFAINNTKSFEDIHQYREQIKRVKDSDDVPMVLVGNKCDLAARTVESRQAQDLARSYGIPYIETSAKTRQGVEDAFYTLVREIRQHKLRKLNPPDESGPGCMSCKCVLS

[2] = target: GDP-bound NRAS wild-type protein (Homo sapiens, UniProt P01111); assay: Binding to NRAS by surface plasmon resonance (SPR), Single Cycle Kinetics; settings: for NRAS/KRAS (ratio of KD value for NRAS to KD value for KRAS) / NRAS/KRAS (ratio of KD value with respect to NRAS to KD value with respect to KRAS): SPR, GDP-bound NRAS wild-type protein vs GDP-bound KRAS wild-type protein; for NRAS/KRAS (ratio of KD value with respect to GDP-bound NRAS wild-type protein to KD value with respect to KRAS): SPR KD ratio NRAS/KRAS, class symbols
Chain of GDP-bound NRAS wild-type protein (P01111 whole entry): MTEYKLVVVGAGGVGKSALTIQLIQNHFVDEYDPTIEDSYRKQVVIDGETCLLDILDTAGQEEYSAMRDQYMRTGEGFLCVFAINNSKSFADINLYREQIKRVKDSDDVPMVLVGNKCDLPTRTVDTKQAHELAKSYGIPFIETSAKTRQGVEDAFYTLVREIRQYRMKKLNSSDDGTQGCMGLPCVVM

[3] = target: GDP-bound KRAS wild-type protein (Homo sapiens, UniProt P01116); assay: Binding to KRAS by surface plasmon resonance (SPR), Single Cycle Kinetics; settings: GDP-bound KRAS wild-type protein, read-out: KRAS KD
Chain of GDP-bound KRAS wild-type protein (P01116 whole entry): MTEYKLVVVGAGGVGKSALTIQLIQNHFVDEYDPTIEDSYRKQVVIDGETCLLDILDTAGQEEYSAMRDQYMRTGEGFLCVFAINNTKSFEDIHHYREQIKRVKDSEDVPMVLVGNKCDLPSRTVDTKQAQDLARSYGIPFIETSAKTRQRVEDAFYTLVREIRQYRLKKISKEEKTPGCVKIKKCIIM

[4] = SPR Single Cycle Kinetics, 1:1 binding model

Kd [3, 4] | Structure (SMILES) | HRAS/KRAS (ratio of KD value for HRAS to KD value for KRAS) [1] | NRAS/KRAS (ratio of KD value for NRAS to KD value for KRAS) [2] | HRAS/KRAS (ratio of KD value with respect to HRAS to KD value with respect to KRAS) [1] | NRAS/KRAS (ratio of KD value with respect to NRAS to KD value with respect to KRAS) [2] | other results
2 nM | CCCN1C(=O)[C@@H]2CCN2C(=O)[C@H](C)N(C)C(=O)[C@H]([C@@H](C)CC)NC(=O)[C@H](CC(C)C)N(C)C(=O)C[C@@H](C(=O)N2CCOCC2)N(C)C(=O)[C@H](C2CCCC2)N(C)C(=O)C2(CCCC2)NC(=O)[C@@H]2CCCN2C(=O)[C@H](CCc2ccc(C(F)(F)F)c(Cl)c2)NC(=O)CN(CC)C(=O)[C@@H]1Cc1ccc(C)cc1 [PP0058] ([NMeL]I[NMeA][Aze][NPrPhe(4-Me)][NEtG][hPhe(3-Cl-4-CF3)]P[Ac5c][NMeGly(cPent)][NMeD]-Morpholide; lactam N-11) | C (A compound having a KD ratio of 0.1 or more and less than 3 is denoted as C) | C (A compound having a KD ratio of 0.1 or more and less than 3 is denoted as C) |  |  | 
4.4 nM | CC[C@H](C)[C@@H]1NC(=O)[C@H](CC(C)C)N(C)C(=O)C[C@@H](C(=O)N2CCOCC2)N(C)C(=O)[C@H](C2CCCC2)N(C)C(=O)C(C)(C)NC(=O)[C@@H]2CCCN2C(=O)[C@H](CCc2cc(F)c(C(F)(F)F)c(F)c2)NC(=O)CN(C)C(=O)[C@H](Cc2ccc(C(F)(F)F)cc2)N2CCCCC[C@@H](C2=O)N(C)C(=O)CN(C)C1=O [PP0503] |  |  | B (a compound having 3 or more and less than 10 is denoted as B) | A (a compound having 10 or more and less than 20 is denoted as A) | 
1.9 nM | CCCN1C(=O)[C@@H]2CCN2C(=O)CN(C)C(=O)[C@H]([C@@H](C)CC)NC(=O)[C@H](CC(C)C)N(C)C(=O)C[C@@H](C(=O)N2CCOCC2)N(C)C(=O)[C@H](C2CCCC2)N(C)C(=O)[C@](C)(COC)NC(=O)[C@@H]2CCCN2C(=O)[C@H](CCc2cc(F)c(C(F)(F)F)c(F)c2)NC(=O)CN(C)C(=O)[C@@H]1Cc1ccc(C(F)(F)F)cc1 [PP0798] ([NMeL]I[Sar][Aze][NPrPhe(4-CF3)][Sar][hPhe(3,5-F2-4-CF3)]P[αMeS](Me)[NMeGly(cPent)][NMeD]-Morpholide; lactam N-11) |  |  | B (a compound having 3 or more and less than 10 is denoted as B) | C (A compound having a KD ratio of 0.1 or more and less than 3 is denoted as C) | 
0.1 nM | CC(C)C[C@H]1C(=O)N[C@@H](C2CCC2)C(=O)N(C)CC(=O)N(C)[C@H]2CCCCN(C2=O)[C@@H](Cc2ccc(C(F)(F)F)cc2)C(=O)N(C)CC(=O)N[C@@H](CCc2cc(F)c(C(F)(F)F)c(F)c2)C(=O)N2CCC[C@H]2C(=O)NC2(CCCC2)C(=O)N(C)[C@@H](C2CCCC2)C(=O)N(C)[C@H](C(=O)N2CCOCC2)CC(=O)N1C [PP0596] |  |  | B (a compound having 3 or more and less than 10 is denoted as B) | B (a compound having 3 or more and less than 10 is denoted as B) | 
0.95 nM | CCCN1C(=O)CN(C)C(=O)CNC(=O)[C@H]([C@@H](C)CC)NC(=O)[C@H](CC(C)C)N(C)C(=O)C[C@@H](C(=O)N2CCOCC2)NC(=O)[C@H](C2CCCC2)N(C)C(=O)C2(CCC2)NC(=O)[C@@H]2C[C@@H](OCC)CN2C(=O)[C@H](CCc2ccc(C(F)(F)F)c(Cl)c2)NC(=O)CN(C)C(=O)[C@@H]1Cc1ccc(C(F)(F)F)cc1 [PP0330] ([NMeL]IG[Sar][NPrPhe(4-CF3)][Sar][hPhe(3-Cl-4-CF3)][Hyp](Et)[Ac4c][NMeGly(cPent)]D-Morpholide; lactam N-11) | C (A compound having a KD ratio of 0.1 or more and less than 3 is denoted as C) | B (a compound having 3 or more and less than 10 is denoted as B) |  |  | 
 | CCC[C@H]1C(=O)N[C@@H]([C@@H](C)CC)C(=O)N(C)CC(=O)N(C)[C@H]2C/C=C\CCN(C2=O)[C@@H](Cc2ccc(C)cc2)C(=O)N(C)CC(=O)N[C@@H](CCc2ccc(C(F)(F)F)c(OC)c2)C(=O)N2CC3(CC3)C[C@H]2C(=O)NC2(CC(C)(C)C2)C(=O)N(C)[C@@H](CC(F)(F)F)C(=O)N(C)[C@H](C(=O)N(C)C)CC(=O)N1C [PP3012] | A (a compound having 10 or more and less than 20 is denoted as A) | A (a compound having 10 or more and less than 20 is denoted as A) |  |  | Kd ([3]; SPR, Single Cycle Kinetics): 1.9 nM
0.051 nM | CCO[C@@H]1C[C@H]2C(=O)NC3(CC(C)(C)C3)C(=O)N(C)[C@@H](C3CCCC3)C(=O)N(C)[C@H](C(=O)N3CCCC3)CC(=O)N(C)[C@H]3CCC/C=C/c4ccc(cc4)C[C@@H](C(=O)N(C)CC(=O)N[C@@H](CCc4cc(F)c(C(F)(F)F)c(F)c4)C(=O)N2C1)N1CC/C=C\C[C@@H](C1=O)N(C)C(=O)CN(C)C(=O)[C@H]([C@@H](C)CC)NC3=O [PP2574, (1S,7S,11R,13S,19S,22S,26S,29S,35S,37Z,47E)-19-cyclopentyl-7-[2-[3,5-difluoro-4-(trifluoromethyl)phenyl]ethyl]-11-ethoxy-3,3′,3′,18,21,25,31,34-octamethyl-29-[(1S)-1-methylpropyl]-22-(pyrrolidine-1-carbonyl)spiro[3,6,9,15,18,21,25,28,31,34,41-undecazapentacyclo[24.15.10.2^43,46.1^35,41.0^9,13]tetrapentaconta-37,43(53),44,46(52),47-pentaene-16,1′-cyclobutane]-2,5,8,14,17,20,24,27,30,33,54-undecone] |  |  |  |  | HRAS/KRAS (ratio of KD value with respect to GDP-bound HRAS wild-type protein to KD value with respect to KRAS) [1]: A (a compound having 10 or more and less than 20 is denoted as A); NRAS/KRAS (ratio of KD value with respect to GDP-bound NRAS wild-type protein to KD value with respect to KRAS) [2]: A (a compound having 10 or more and less than 20 is denoted as A)
0.091 nM | CCCN1C(=O)CN(C)C(=O)CN(C)C(=O)[C@H]([C@@H](C)CC)NC(=O)[C@H](CC(C)C)N(C)C(=O)C[C@@H](C(=O)N2CCOCC2)N(C)C(=O)[C@H](C2CCCC2)N(C)C(=O)C2(CCCC2)NC(=O)[C@@H]2CC(F)(F)CN2C(=O)[C@H](CCc2ccc(C(F)(F)F)c(Cl)c2)NC(=O)CN(C)C(=O)[C@@H]1Cc1ccc(C(F)(F)F)cc1 [PP0195] ([NMeL]I[Sar][Sar][NPrPhe(4-CF3)][Sar][hPhe(3-Cl-4-CF3)][Pro(4,4-F2)][Ac5c][NMeGly(cPent)][NMeD]-Morpholide; lactam N-11) | C (A compound having a KD ratio of 0.1 or more and less than 3 is denoted as C) | B (a compound having 3 or more and less than 10 is denoted as B) |  |  | 
0.094 nM | CCO[C@@H]1C[C@H]2C(=O)NC3(CCC3)C(=O)N(C)[C@@H](C3CCCC3)C(=O)N(C)[C@H](C(=O)N(C)C)CC(=O)N(C)[C@@H](C)C(=O)N[C@@H]([C@H](C)CC)C(=O)N(C)CC(=O)N(C)[C@H]3CCCCN(C3=O)[C@@H](Cc3ccc(C(F)(F)F)cc3)C(=O)N(C)CC(=O)N[C@@H](CCc3cc(F)c(C(F)(F)F)c(F)c3)C(=O)N2C1 [PP0730] |  |  | C (A compound having a KD ratio of 0.1 or more and less than 3 is denoted as C) | C (A compound having a KD ratio of 0.1 or more and less than 3 is denoted as C) | 
0.56 nM | CCC[C@H]1C(=O)N[C@@H]([C@@H](C)CC)C(=O)N(C)CC(=O)N(C)[C@H]2C/C=C\CCN(C2=O)[C@@H](Cc2ccc(C(F)(F)F)cc2)C(=O)N(C)CC(=O)N[C@@H](CCc2ccc3c(C)cn(C)c3c2)C(=O)N2C[C@H](OCC)C[C@H]2C(=O)NC2(CC(C)(C)C2)C(=O)N(C)[C@@H](C2CCCC2)C(=O)N(C)[C@H](C(=O)N(C)C)CC(=O)N1C [PP2897] |  |  |  |  | HRAS/KRAS (ratio of KD value with respect to GDP-bound HRAS wild-type protein to KD value with respect to KRAS) [1]: B (a compound having 3 or more and less than 10 is denoted as B); NRAS/KRAS (ratio of KD value with respect to GDP-bound NRAS wild-type protein to KD value with respect to KRAS) [2]: A (a compound having 10 or more and less than 20 is denoted as A)
 | CCO[C@@H]1C[C@H]2C(=O)NC3(CCC3)C(=O)N(C)[C@@H](C3CCCC3)C(=O)N(C)[C@H](C(=O)N(C)CCOC)CC(=O)N(C)[C@@H](C)C(=O)N[C@@H]([C@@H](C)CC)C(=O)N(C)CC(=O)N(C)[C@H]3C/C=C\CCN(C3=O)[C@@H](Cc3ccc(C(F)(F)F)cc3)C(=O)N(C)CC(=O)N[C@@H](CCc3cc(F)c(C(F)(F)F)c(F)c3)C(=O)N2C1 [PP1319, (2S,8S,12R,14S,20S,23S,27S,30S,36S,38Z)-20-cyclopentyl-8-[2-[3,5-difluoro-4-(trifluoromethyl)phenyl]ethyl]-12-ethoxy-N-(2-methoxyethyl)-N,4,19,22,26,27,32,35-octamethyl-30-[(1S)-1-methylpropyl]-3,6,9,15,18,21,25,28,31,34,42-undecaoxo-2-[[4-(trifluoromethyl)phenyl]methyl]spiro[1,4,7,10,16,19,22,26,29,32,35-undecazatricyclo[34.5.1.0^10,14]dotetracont-38-ene-17,1′-cyclobutane]-23-carboxamide] |  |  |  |  | HRAS/KRAS (ratio of KD value for HRAS to KD value for KRAS) ([1]; KD ratio class): B (a compound having 3 or more and less than 10 is denoted as B); NRAS/KRAS (ratio of KD value for NRAS to KD value for KRAS) ([2]; KD ratio class): A (a compound having 10 or more and less than 20 is denoted as A); Kd ([3]; SPR, Single Cycle Kinetics, 1:1 binding model): 0.069 nM
